Experiment in all cases: Minimum inhibitory concentration (MIC) and checkerboard assay
Assay type in all cases: cell-based
Holding throughout (settings): unit assumed

In experiment [1] the test system is Escherichia coli (ATCC 8739). An excerpt: (§1) Escherichia coli (ATCC 8739), Staphylococcus aureus (ATCC 6538), P. aeruginosa (ATCC 9027), Candida albicans (ATCC 10231), and Aspergillus brasiliensis (ATCC 16404) were obtained from ATCC and cultured according to the manufacturer's instructions. These microorganisms are routinely used for minimum inhibitory concentration (MIC), checkerboards and challenge tests according to the US and EU recommendations for the efficacy of preservatives in the cosmetic industry. Bacterial strains were maintained in tryptic soy agar (TSA) (Hy-labs, Rehovot, Israel), while yeast and mold strains were maintained in sabouraud dextrose agar (SDA) (Hy-labs, Israel), supplemented with oxytetracycline at a concentration of 1% (Hy-labs, Israel). […] Briefly, growth of E. coli, S. aureus, P. aeruginosa, P. gergoviea, B. cepacia, C. albicans, and A. brasiliensis was observed during incubation with two-fold serial dilutions of the abovementioned compounds in Mueller Hinton (MH) broth, using a 96-well plate (BIOFUL, Israel). For the checkerboard assay using a 96-well plate, decreasing concentrations of one compound were added from top to bottom of the plate using serial dilutions. Decreasing concentrations of the second compound were added to the plate from the right, having the highest concentration, to the left side of the plate with the lowest concentration. […] Bacteria inoculated plates were incubated for 24 h at 32° C. with shaking, while fungi inoculated plates were incubated at 23° C. for 48-72 h with shaking. Microorganism growth was evaluated by a spectrophotometer O.D. reads (BioTek, Israel). The culture is standardized using standard microbiological techniques to have a concentration of very near 1 million cells per milliliter. The antimicrobial agent is diluted a number of times, with Tryptic soy broth or Sabouraud broth for fungi. After the antimicrobial agent had been diluted, a volume of the standardized inoculums was added to each dilution vessel, bringing the microbial concentration to approximately 1,000,000 cells per milliliter. The inoculated, serially diluted antimicrobial agent was incubated at an appropriate temperature for the test organism, 24 hours for bacteria 48 for yeast and 72 for mold. […] The microorganism strains used for the test were E. coli ATCC 8739, P. aeruginosa ATCC 9027, S. aureus ATCC 6538, C. albicans ATCC 10231, A. brasiliensis ATCC 16404. Measuring synergy between preservatives can be done by the widely described Fractional Inhibitory Concentration Index (FICI). While the MIC is defined as the lowest concentration of molecule alone or in combination that inhibited visible growth, the in vitro interactions can be quantified as FICI and calculated using the following formula: […]

The test system of experiment [2] is P. aeruginosa (ATCC 9027).
Excerpt: as §1

The subject of experiment [3] is Staphylococcus aureus (ATCC 6538).
Excerpt: as §1

In experiment [4] the test system is Candida albicans (ATCC 10231). An excerpt: (§2) Escherichia coli (ATCC 8739), Staphylococcus aureus (ATCC 6538), P. aeruginosa (ATCC 9027), Candida albicans (ATCC 10231), and Aspergillus brasiliensis (ATCC 16404) were obtained from ATCC and cultured according to the manufacturer's instructions. These microorganisms are routinely used for minimum inhibitory concentration (MIC), checkerboards and challenge tests according to the US and EU recommendations for the efficacy of preservatives in the cosmetic industry. Bacterial strains were maintained in tryptic soy agar (TSA) (Hy-labs, Rehovot, Israel), while yeast and mold strains were maintained in sabouraud dextrose agar (SDA) (Hy-labs, Israel), supplemented with oxytetracycline at a concentration of 1% (Hy-labs, Israel). […] Briefly, growth of E. coli, S. aureus, P. aeruginosa, P. gergoviea, B. cepacia, C. albicans, and A. brasiliensis was observed during incubation with two-fold serial dilutions of the abovementioned compounds in Mueller Hinton (MH) broth, using a 96-well plate (BIOFUL, Israel). For the checkerboard assay using a 96-well plate, decreasing concentrations of one compound were added from top to bottom of the plate using serial dilutions. Decreasing concentrations of the second compound were added to the plate from the right, having the highest concentration, to the left side of the plate with the lowest concentration. […] Bacteria inoculated plates were incubated for 24 h at 32° C. with shaking, while fungi inoculated plates were incubated at 23° C. for 48-72 h with shaking. Microorganism growth was evaluated by a spectrophotometer O.D. reads (BioTek, Israel). In additional exemplary procedure, MIC evaluation test with Candida albicans was performed in test tubes. Growth in this case is visually evaluated. A pure culture of a single microorganism was grown in Tryptic soy broth, or Sabouraud dextrose broth for yeast and mold. […] While the MIC is defined as the lowest concentration of molecule alone or in combination that inhibited visible growth, the in vitro interactions can be quantified as FICI and calculated using the following formula: […]

The test system of experiment [5] is Aspergillus brasiliensis (ATCC 16404).
Excerpt: as §2, with “In another” for “In additional”, “with A. brasiliensis” for “with Candida albicans”, “Sabouraud” for “Sabouraud dextrose”

SMILES strings stand for the structures.

As to `CC(=O)[O-].CC(=O)[O-].[Zn+2]` [Zinc Acetate, zinc acetate], in experiment [1], the MIC E. coli came out at 312 µg/mL. In experiment [2], the MIC P. aeruginosa was 312 µg/mL. Besides, in experiment [3], the MIC S. aureus came to 160 µg/mL. Further, the MIC C. albicans in experiment [4] was found to be 110 µg/mL. Further, in experiment [5], the MIC A. brasiliensis was 100 µg/mL.
Take `Cc1occc(=O)c1O` [Maltol, maltol]: in experiment [1], the MIC E. coli came out at 5000 µg/mL. For the same compound, the MIC P. aeruginosa in experiment [2] was 1250 µg/mL. For the same compound, the MIC S. aureus in experiment [3] turned out to be 5000 µg/mL. For the same compound, the MIC C. albicans in experiment [4] was found to be 1880 µg/mL. Besides, the MIC A. brasiliensis in experiment [5] worked out at 1250 µg/mL.
For `CCCCC(CC)COCC(O)CO` (stereo not drawn) [EHG, ethylhexylglycerin], in experiment [1], the MIC E. coli stood at 5000 µg/mL. Moreover, the MIC P. aeruginosa in experiment [2] was over 5000 µg/mL. Further, in experiment [3], the MIC S. aureus was determined as 2500 µg/mL. Further, in experiment [4], the MIC C. albicans amounted to 2500 µg/mL. The MIC A. brasiliensis in experiment [5] was determined as 1250 µg/mL.

Source of the values: US20240298646A1, “ANTIBIOFILM PRESERVATIVE COMPOSITIONS” (SHARON PERSONAL CARE LTD., priority 2021, published 2024).
